Here are results for 18 compounds from patent publication US11174260B2, “Compounds and methods for the treatment of parasitic diseases” (THE BROAD INSTITUTE, INC., priority 2017, dated 2021).

Each structure is given as a SMILES string.

The first assay deals with P. falciparum Dd2. Briefly: In vitro P. falciparum blood-stage culture and assay. The following applies: 72 h incubation, SYBR Green I readout, read-out: Pf Dd2. The format is cell-based. As to the method:
Strains of P. falciparum (Dd2, 3D7, D6, K1, NF54, V1/3, HB3, 7G8, FCB and TM90C2B) were obtained from the Malaria Research and Reference Reagent Resource Center (MR4). P. falciparum isolates were maintained with O-positive human blood in an atmosphere of 93% N2, 4% CO2, 3% O2 at 37° C. in complete culturing medium (10.4 g/L RPMI 1640, 5.94 g/L HEPES, 5 g/L albumax II, 50 mg/L hypoxanthine, 2.1 g/L sodium bicarbonate, 10% human serum and 43 mg/L gentamicin). Parasites were cultured in medium until parasitaemia reached 3-8%. Parasitaemia was determined by checking at least 500 red blood cells from a Giemsa-stained blood smear. For the compound screening, a parasite dilution at 2.0% parasitaemia and 2.0% haematocrit was created with medium. 25 μl of medium was dispensed into 384-well black, clear-bottom plates and 100 nl of each compound in DMSO was transferred into assay plates along with the control compound (mefloquine). Next, 25 μl of the parasite suspension in medium was dispensed into the assay plates giving a final parasitaemia of 1% and a final haematocrit of 1%. The assay plates were incubated for 72 h at 37° C. 10 μl of detection reagent consisting of 10×SYBR Green I (Invitrogen; supplied in 10,000× concentration) in lysis buffer (20 mM Tris-HCl, 5 mM EDTA, 0.16% (w/v) Saponin, 1.6% (v/v) Triton X-100) was dispensed into the assay plates. For optimal staining, the assay plates were left at room temperature for 24 h in the dark. The assay plates were read with 505 dichroic mirrors with 485 nm excitation and 530 nm emission settings in an Envision (PerkinElmer).
For `COc1ccc(NC(=O)N2CCC(O)CN3[C@H](CN(C)C)[C@H](c4ccc(C#Cc5ccccc5)cc4)[C@@H]3C2)cc1` (single isomer, unassigned) [Example E17], the EC50 was under 50 nM.

The same assay, now with this note: Plasmodium falciparum, DD2, 72 h, 72 h incubation, SYBR Green I readout, read-out: Pf Dd2.
Regarding `COc1ccc(NC(=O)N2C[C@@H](O)CCN3[C@H](CN(C)C)[C@H](c4ccc(C#Cc5ccccc5)cc4)[C@@H]3C2)cc1` [Example E24, (4S,8R,9S,10S)-10-[(dimethylamino)methyl]-4-hydroxy-N-(4-methoxyphenyl)-9-[4-(2-phenylethynyl)phenyl]-1,6-diazabicyclo[6.2.0]decane-6-carboxamide], the EC50 is over 250 nM. With `COc1ccc(NC(=O)N2C[C@@H](O)[C@@H](O)CN3[C@H](CN(C)C)[C@H](c4ccc(C#Cc5cccc(F)c5F)cc4)[C@@H]3C2)cc1` [Example E12, (3S,4R,8R,9S,10S)-9-(4-((2,3-difluorophenyl)ethynyl)phenyl)-10-((dimethylamino)methyl)-3,4-dihydroxy-N-(4-methoxyphenyl)-1,6-diazabicyclo[6.2.0]decane-6-carboxamide], the EC50 fell in the range of 50 to 250 nM.

For the compound `COc1ccc(NC(=O)N2C[C@H]3OCCO[C@H]3CN3[C@H](CN(C)C)[C@H](c4ccc(C#Cc5ccccc5)cc4)[C@@H]3C2)cc1` [Example E14, (4aR,7aR,8S,9S,11aS)-9-((dimethylamino)methyl)-N-(4-methoxyphenyl)-8-(4-(phenylethynyl)phenyl)octahydro-2H-azeto[1,2-a][1,4]dioxino[2,3-f][1,4]diazocine-6(3H)-carboxamide], the EC50 was under 50 nM. As for `CN(C)C[C@@H]1[C@H](c2ccc(C#Cc3ccccc3)cc2)[C@@H]2CN(C(=O)Nc3ccc(OC4CC4)cc3)C[C@H](O)[C@H](O)CN12` [Example E38, (3R,4S,8R,9S,10S)-N-(4-cyclopropoxyphenyl)-10-((dimethylamino)methyl)-3,4-dihydroxy-9-(4-(phenylethynyl)phenyl)-1,6-diazabicyclo[6.2.0]decane-6-carboxamide], the EC50 is under 50 nM.

In the case of `COc1ccc(NC(=O)N2CCCC(C)N3[C@H](CO)[C@H](c4ccc(C#Cc5ccccc5)cc4)[C@@H]3C2)cc1` (stereo partly drawn) [Example E35, (8R,9R,10S)-10-(hydroxymethyl)-N-(4-methoxyphenyl)-2-methyl-9-[4-(2-phenylethynyl)phenyl]-1,6-diazabicyclo[6.2.0]decane-6-carboxamide], the EC50 is under 50 nM. For the compound `COc1ccc(NC(=O)N2CC[C@@H](N(C)C)CN3[C@H](CO)[C@H](c4ccc(C#Cc5ccccc5)cc4)[C@@H]3C2)cc1` [Example E28, (3R,8R,9R,10S)-3-(dimethylamino)-10-(hydroxymethyl)-N-(4-methoxyphenyl)-9-[4-(2-phenylethynyl)phenyl]-1,6-diazabicyclo[6.2.0]decane-6-carboxamide], the EC50 was in the range of 50 to 250 nM. Regarding `COc1ccc(NC(=O)N2C[C@H](N(C)C)CCN3[C@H](CO)[C@H](c4ccc(C#Cc5ccccc5)cc4)[C@@H]3C2)cc1` [Example E30, (4R,8R,9R,10S)-4-(dimethylamino)-10-(hydroxymethyl)-N-(4-methoxyphenyl)-9-(4-(phenylethynyl)phenyl)-1,6-diazabicyclo[6.2.0]decane-6-carboxamide], the EC50 was over 250 nM.

For `COc1ccc(NC(=O)N2CC[C@H](N(C)C)CN3[C@H](CO)[C@H](c4ccc(C#Cc5ccccc5)cc4)[C@@H]3C2)cc1` [Example E29, (3S,8R,9R,10S)-3-(dimethylamino)-10-(hydroxymethyl)-N-(4-methoxyphenyl)-9-(4-(phenylethynyl)phenyl)-1,6-diazabicyclo[6.2.0]decane-6-carboxamide], the EC50 was in the range of 50 to 250 nM. Take `COc1ccc(NC(=O)N2C[C@H](O)[C@H](O)CN3[C@H](CN(C)C)[C@H](c4ccc(C#Cc5cccc(F)c5F)cc4)[C@@H]3C2)cc1` [Example E13, (3R,4S,8R,9S,10S)-9-[4-[2-(2,3-difluorophenyl)ethynyl]phenyl]-10-[(dimethylamino)methyl]-3,4-dihydroxy-N-(4-methoxyphenyl)-1,6-diazabicyclo[6.2.0]decane-6-carboxamide]: the EC50 is under 50 nM. As for `COc1ccc(NC(=O)N2C[C@@H](OC)[C@@H](OC)CN3[C@H](CN(C)C)[C@H](c4ccc(C#Cc5ccccc5)cc4)[C@@H]3C2)cc1` [Example E2, (3S,4R,8R,9S,10S)-10-((dimethylamino)methyl)-3,4-dimethoxy-N-(4-methoxyphenyl)-9-(4-(phenylethynyl)phenyl)-1,6-diazabicyclo[6.2.0]decane-6-carboxamide], the EC50 was under 50 nM.

As to `COc1ccc(NC(=O)N2C[C@H](O)[C@H](O)CN3C[C@H](c4ccc(C#Cc5ccccc5)cc4)[C@@H]3C2)cc1` [Example E37, (3R,4S,8R,9S)-3,4-dihydroxy-N-(4-methoxyphenyl)-9-[4-(2-phenylethynyl)phenyl]-1,6-diazabicyclo[6.2.0]decane-6-carboxamide], the EC50 fell in the range of 50 to 250 nM. Turning to `COc1ccc(NC(=O)N2C[C@@H](N(C)C)CCN3[C@H](CO)[C@H](c4ccc(C#Cc5ccccc5)cc4)[C@@H]3C2)cc1` [Example E3, (4S,8R,9R,10S)-4-(dimethylamino)-10-(hydroxymethyl)-N-(4-methoxyphenyl)-9-(4-(phenylethynyl)phenyl)-1,6-diazabicyclo[6.2.0]decane-6-carboxamide], the EC50 was over 250 nM. In the case of `COc1ccc(NC(=O)N2C[C@@H](O)[C@@H](O)CN3[C@H](CO)[C@H](c4ccc(C#Cc5cccnc5)cc4)[C@@H]3C2)cc1` [Example E22, (3S,4R,8R,9R,10S)-3,4-dihydroxy-10-(hydroxymethyl)-N-(4-methoxyphenyl)-9-(4-(pyridin-3-ylethynyl)phenyl)-1,6-diazabicyclo[6.2.0]decane-6-carboxamide], the EC50 is over 250 nM. For the compound `COc1ccc(NC(=O)N2CCC(CN(C)C)CN3[C@H](CN(C)C)[C@H](c4ccc(C#Cc5ccccc5)cc4)[C@@H]3C2)cc1` (stereo partly drawn) [Example E25, (8R,9S,10S)-3,10-bis[(dimethylamino)methyl]-N-(4-methoxyphenyl)-9-[4-(2-phenylethynyl)phenyl]-1,6-diazabicyclo[6.2.0]decane-6-carboxamide], the EC50 fell in the range of 50 to 250 nM. As to `COc1ccc(NC(=O)N2CC(CN(C)C)CCN3[C@H](CO)[C@H](c4ccc(C#Cc5ccccc5)cc4)[C@@H]3C2)cc1` (stereo partly drawn) [Example E31, (8R,9R,10S)-4-((dimethylamino)methyl)-10-(hydroxymethyl)-N-(4-methoxyphenyl)-9-(4-(phenylethynyl)phenyl)-1,6-diazabicyclo[6.2.0]decane-6-carboxamide], the EC50 was over 250 nM.

As to `COc1ccc(NC(=O)N2CCCC(C)N3[C@H](CN(C)C)[C@H](c4ccc(C#Cc5ccccc5)cc4)[C@@H]3C2)cc1` (stereo partly drawn) [Example E34, (8R,9S,10S)-10-((dimethylamino)methyl)-N-(4-methoxyphenyl)-2-methyl-9-(4-(phenylethynyl)phenyl)-1,6-diazabicyclo[6.2.0]decane-6-carboxamide], the EC50 was under 50 nM. Still for that read-out and setting: the result for `COc1ccc(NC(=O)N2C[C@H](O)[C@H](O)CN3[C@H](CN(C)C)[C@H](c4ccc(C#Cc5ccccc5F)cc4)[C@@H]3C2)cc1` [Example E8, (3R,4S,8R,9S,10S)-10-[(dimethylamino)methyl]-9-[4-[2-(2-fluorophenyl)ethynyl]phenyl]-3,4-dihydroxy-N-(4-methoxyphenyl)-1,6-diazabicyclo[6.2.0]decane-6-carboxamide] reads 50 to 250 nM.
